In one experiment the test system is cEPPC. The experiment in a line: Cardiomyocyte differentiation of cEPPC (contractility by time lapse microscopy, troponin immunostaining). In kind it is cell-based, C57BL/B6 mice. To be noted: beta adrenergic stimuli, isoproterenol 25 nM. How it is done: Hearts were removed from P1 neonate C57BL/B6 mice or PKR1 null mutant mice, cut into pieces (approximately 1 mm^3), rinsed in PBS to remove excess blood and plated onto 0.1 % gelatin petri dish in DMEM containing GlutaMax, 4.5 g /L glucose, penicillin, streptomycin and 15 % fetal calf serum. Cultures were maintained with minimum disturbance to allow explants to adhere. All cells were maintained at 37°C in a humidified air 5% CO2 atmosphere. After 4 days explants were removed and cells were gently washed and fresh medium with DMEM containing GlutaMax, 4.5 g /L glucose, penicillin, streptomycin and 10 % fetal calf serum serum was added. The cells were cultured during 10 days and trypsinized for experimentation.
For cardiomyogenesis, cells were plated at 2x10^4 onto 1% gelatin coated culture chamber in DMEM containing GlutaMax, 4.5 g /L glucose, penicillin, streptomycin and 10 % fetal calf serum. The cells were maintained in culture during six days and medium were change every 2 days. After 6 days, cardiomyocyte differentiation can be induced using culture medium supplemented with 1µM dexamethasone, 50µg/ml ascorbic acid, 10mM glycerophosphate without or with 10 nM of prokineticin-2. The medium was change every 2 days during 36 days. […]
Cells were fixed in 3,7% formaldehyde at 4°C 1 hours. […] The immunofluorescence was detected by Leica TCSNT fluorescent microscope.

The target in another experiment is T1, GFP-PKR1 (Homo sapiens, UniProt Q8TCW9).
T1 construct: expressed in transfected cells; host or cells: CHO-K1 cells, transient transfection with Lipofectamine2000
The experiment is described as follows: PKR1 internalization in CHO-K1 cells transfected with GFP-PKR1. In kind it is cell-based. The note with it: CHO-K1 cells expressing GFP-PKR1, 48h after transfection, 37°C, 20 min imaging. How it is done: The capacity of agonist compounds to induce internalization of PKR1 was assessed. Therefore, CHO-K1 cells transfected with a plasmid encoding GFP-PKR1 (Green Fluorescent Protein-PKR1), in the presence of Lipofectamine2000 (Invitrogen), were used. Cells were stimulated, 48h after transfection, with or without agonist compound, at 37°C. GFP is a fluorescent protein fusion (26.9 kDa) which has a major excitation peak at a wavelength of 396 nm and a minor one at 472 nm. Its emission peak is at 504 nm which is in the lower green portion of the visible spectrum. Fluorescence allowed tracking the localization of PKR1 after stimulation by the agonist (membrane or subcellular). Cells were seeded in glass-bottom coated with polyL-lysine and receptor studies were performed in the presence of various PKR1-ligands. Samples were observed under a Leica confocal microscope (SP2 AOBS MP) with objective 63× at 37°C. Images were automatically recorded during 20 min, with increasing time intervals to avoid bleaching effects because of repetitive scanning. Reconstituted videos contained 42 images and lasted 2 second.

In a further experiment the test system is PKR1. The experiment in a line: Measurement of intracellular calcium in CHO-K1-PKR1 cells (Fluo 4-AM, confocal microscope). It is filed as cell-based. To be noted: CHO-K1 cells infected with adenovirus carrying PKR1 cDNA, 48h after infection, 37°C. How it is done:
CHO-K1 (Chinese Hamster Ovary) cells were infected with an adenovirus carrying PKR1 cDNA. Cells were then stimulated, 48h after infection, with or without IS1 agonists, at 37°C.
Calcium imaging was conducted essentially as previously described (Horinouchi et al., 2007) In brief, Intracellular free calcium [Ca^2+]i was measured with the fluorescent Ca^2+ indicator dye Fluo 4-AM, the membrane-permeant acetoxymethyl ester form of Fluo 4 (Invitrogen). Changes in [Ca^2+]i were determined from variations in the fluorescence intensity of Fluo 4-AM. Briefly, trypsinized CHO-K1-PKR1 cells were seeded onto glass bottom culture dishes (MatTek, MA, USA) for 24 h. […] The fluorescence in the cells was excited at a wavelength of 488 nm and a series of images (total exposure time: 300 s) were acquired at 0.5s intervals at emission wavelength 518 nm. Data are presented as the fluorescence intensity of 3 randomly chosen cells within a randomly selected 40× field. To evaluate the effect of IS1 compound on [Ca^2+]i in CHO-K-PKR1, the maximum change in fluorescence intensity upon addition of IS1 was measured and normalized to the baseline fluorescence obtained before IS 1 addition.
On the technique in general: Calcium assays in cells follow changes in intracellular calcium, usually with a dye or a luminescent sensor.

Experiment [1] deals with Coronary endothelial cells (H5V cells). The experiment is described as follows: In vitro angiogenesis, tube-like formation on Matrigel. The note with it: serum free medium, 24h. It is filed as cell-based. How it is done: Coronary endothelial cells (H5V cells) were maintained in DMEM supplemented with 10% heat inactivated Fetal Calf Serum (FCS), glutamine (1mM) under 5% CO2 at 37°C.
In order to evaluate the potential angiogenic activity of the non peptide PKR1 agonists, the test of Growth Factor Reduced Matrigel (GFR Matrigel) 24 well plate was performed. Matrigel leads to the differentiation of many cell types and induces the formation and organization of endothelial cells into capillary tubules. Twenty-four-well culture plates were coated with Matrigel and endothelial cells (H5V) were trypsin-harvested and seeded onto the coated plates at 10^5 cells per well in the serum free assay medium with PKR1 agonists, IS1 and prokineticin-2, and incubated at 37°C for 24h. Tube formation as two dimensional branched structures were observed using an inverted phase contrast microscope (Zeiss), and the number of branching points were quantified in per well from each sample. Each experiment was repeated at least three times. Images were captured at a magnification of X10 with a digital microscope camera system (Urayama K et al., 2007).

T1 sequence (Q8TCW9 whole entry): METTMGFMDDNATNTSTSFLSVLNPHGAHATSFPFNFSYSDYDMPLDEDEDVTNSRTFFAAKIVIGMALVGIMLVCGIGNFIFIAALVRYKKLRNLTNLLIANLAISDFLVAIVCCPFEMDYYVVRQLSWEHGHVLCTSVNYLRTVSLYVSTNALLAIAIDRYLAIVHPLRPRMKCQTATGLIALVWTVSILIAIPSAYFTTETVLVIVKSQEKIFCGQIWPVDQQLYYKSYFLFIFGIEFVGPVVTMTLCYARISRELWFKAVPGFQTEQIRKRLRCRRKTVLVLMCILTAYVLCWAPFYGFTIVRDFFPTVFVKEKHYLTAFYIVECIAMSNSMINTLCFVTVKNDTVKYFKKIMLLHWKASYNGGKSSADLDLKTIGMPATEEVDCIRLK

In the case of `CC(C)NCC(O)c1ccc(O)c(O)c1` (stereo not shown) [isoproterenol, Isoproterenol], the “beating frequence of cardiomyocytes induced from cEPPC” value in the experiment on cEPPC is “beating frequence is increased”.

With `O=C(NCc1cccnc1)/C(=C\c1ccco1)NC(=O)c1ccccc1` [IS1], the PKR1 internalization result at GFP-PKR1 is “specifically interacts with PKR1 and induces its internalization”. The “activation of PKR1 signalling pathway (intracellular calcium release)” value with PKR1 was “able to activate the PKR1 signalling pathway”. Besides, in experiment [1], the “in vitro angiogenesis (tube-like formation of the endothelial cells on Matrigel)” value was “Induction of in vitro angiogenesis”.
